Measured values reported in ChEMBL document CHEMBL1121920, “Synthesis and biological evaluation of the methyl esters of (+)-12-fluoro-13,14-dihydroprostaglandin F2alpha and (+)-15-epi-12-fluoro-13,14-dihydroprostaglandin F2alpha” (1981).

How the values were obtained:
[1] = tested on: Cricetinae gen. sp.; assay: Compound was evaluated for uterine contraction relative to PGF2-alpha in hamsters; assay type: functional, hamster
[2] = tested on: Gerbillinae; assay: Compound was evaluated for gerbil colon contraction relative to PGF2-alpha; assay type: functional

SMILES	Potency [1]	Potency [2]
CCCCC[C@H](O)/C=C/[C@@]1(F)[C@H](O)C[C@H](O)[C@@H]1C/C=C\CCCC(=O)OC	0.28	0.001
CCCCC[C@@H](O)CC[C@@]1(F)[C@H](O)C[C@H](O)[C@@H]1C/C=C\CCCC(=O)OC	0.005	0.001
CCCCC[C@H](O)CC[C@@H]1[C@@H](C/C=C\CCCC(=O)OC)[C@@H](O)C[C@H]1O	0.95	0.11
CCCCC[C@H](O)CC[C@@]1(F)[C@H](O)C[C@H](O)[C@@H]1C/C=C\CCCC(=O)OC	0.016	0.004
CCCCC[C@H](O)/C=C/[C@@H]1[C@@H](C/C=C\CCCC(=O)O)[C@@H](O)C[C@H]1O [DINOPROST]	1	1
CCCCC[C@@H](O)/C=C/[C@@]1(F)[C@H](O)C[C@H](O)[C@@H]1C/C=C\CCCC(=O)OC	0.022	0.011
